We go through one compound from patent EP0554004A2, “Cephem compounds and antibacterial agents” (KATAYAMA SEIYAKUSYO CO. Ltd., priority 1992, dated 1993).

What all share (assay): MIC against standard strains (Test Example 1)
Holding throughout (type): cell-based

Assay [1] relates to Bacillus subtilis ATCC 6633. As to conditions: ATCC6633, Muller-Hinton agar, 37°C overnight. The method in brief:
(§1)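 MIC values are the minimum agent concentrations that prevented bacterial growth on Mueller-Hinton agar after overnight incubation at 37°C. Inocula contained 1 x 10^6 CFU/ml, prepared from overnight Mueller-Hinton broth cultures grown at 37°C.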

Assay [2] has as its system Escherichia coli CSH2 (RK1). The method in brief:
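Read-out is visible growth inhibition on agent-containing Mueller-Hinton agar, overnight at 37°C; the MIC is the lowest inhibitory concentration. Inoculum: 1 x 10^6 CFU/ml.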

Assay [3] has as its system Klebsiella pneumoniae IFO 3317. As to conditions: IFO3317, Muller-Hinton agar, 37°C overnight. The method in brief: as §1
Assay [4] deals with Klebsiella pneumoniae No. 42. As to conditions: Muller-Hinton agar, 37°C overnight. The method in brief: as §1
The test system of assay [5] is Micrococcus luteus ATCC 9341. Conditions: ATCC9341, Muller-Hinton agar, 37°C overnight. The method in brief: as §1
In assay [6] the test system is Morganella morganii IFO 3848. As to conditions: IFO3848, Muller-Hinton agar, 37°C overnight. In a few lines:
as §1

In assay [7] the test system is Proteus mirabilis IFO 3849. As to conditions: IFO3849, Muller-Hinton agar, 37°C overnight. In a few lines: as §1
The test system of assay [8] is Pseudomonas aeruginosa NCTC 10490. Conditions: NCTC10490, Muller-Hinton agar, 37°C overnight. In a few lines:
as §1

The test system of assay [9] is Psuedomonas aeruginosa IFO 3445. As to conditions: Muller-Hinton agar, 37°C overnight. The method in brief:
as §1

Assay [10] concerns Serratia marcescens IAM 1184. As to conditions: IAM1184, Muller-Hinton agar, 37°C overnight. The method in brief:
as §1

In assay [11] the test system is Staphylococcus aureus 195. Conditions: Staphylococcus aureus 195 (MRSA); Muller-Hinton agar, 37°C overnight. In a few lines:
as §1

For assay [12], the system named is Staphylococcus aureus 209P JC-1. Conditions: Muller-Hinton agar, 37°C overnight. In a few lines:
as §1

Assay [13] relates to Staphylococcus aureus Smith. Conditions: Muller-Hinton agar, 37°C overnight. The method in brief: as §1
Assay [14] relates to Staphylococcus epidermidis IAM 1296. As to conditions: IAM1296, Muller-Hinton agar, 37°C overnight. The method in brief:
as §1

The MIC is the least concentration at which growth counts as inhibited. A high value points to a need for much substance.

SMILES strings stand for the structures. In brackets after ≈: the same amount, converted by molar mass.

Take `CO[C@@]1(NC(=O)CSC(F)F)C(=O)N2C(C(=O)O)=C(CSc3nnnn3CCO)CO[C@@H]21` [FMOX, flomoxef, reference compound]: the MIC in [1] is 0.2 µg/mL (≈ 0.403 µM); in assay [2], 0.05 µg/mL (≈ 0.101 µM); in assay [3], 0.05 µg/mL (≈ 0.101 µM); in assay [4], 0.1 µg/mL (≈ 0.201 µM); in [5] it was 0.2 µg/mL (≈ 0.403 µM); in assay [6], 0.39 µg/mL (≈ 0.786 µM). Also, the minimal inhibitory concentration (MIC) in [7] is 0.2 µg/mL (≈ 0.403 µM); in [8], more than 100 µg/mL; in assay [9], more than 100 µg/mL; in assay [10] it was 0.2 µg/mL (≈ 0.403 µM); in [11], 6.25 µg/mL (≈ 12.6 µM); in assay [12], 0.39 µg/mL (≈ 0.786 µM). For the same compound, the minimum inhibitory concentration (MIC) in assay [13] was 0.39 µg/mL (≈ 0.786 µM); in assay [14], 0.2 µg/mL (≈ 0.403 µM).
